Values of other authors as cited in patent US10557153B2, “Degradation of lignocellulosic material” (DSM IP ASSETS B.V., priority 2008, dated 2020).

Experiments:
Conditions in all cases: S (Cellobiose) 2.5 g/L
[1] = tested on: Talaromyces beta-glucosidase
[2] = tested on: Trichoderma beta-glucosidase
[3] = tested on: A. niger beta-glucosidase
[4] = tested on: A. oryzae beta-glucosidase

For `OC[C@H]1O[C@@H](O[C@H]2[C@H](O)[C@@H](O)C(O)O[C@@H]2CO)[C@H](O)[C@@H](O)[C@@H]1O` (stereo partly shown) [cellobiose], which “Vmax (cellobiose)” value [1] is on record?
Its value is 1080 gr/gr protein/hr.

And the “Vmax (cellobiose)” value [2]?
Its value is 470 gr/gr protein/hr.

And the “Vmax (cellobiose)” value [3]?
Its value is 400 gr/gr protein/hr.

What about the “Vmax (cellobiose)” value [4] of the same compound?
Its value is 10131 gr/gr protein/hr.
